The test has as its system CD2F1 mice, L1210 leukemia ip, survival T/C. Description: NCI In Vivo Anticancer Drug Screen. Data for tumor model L1210 Leukemia (intraperitoneal) in CD2F1 (CDF1) mice. The following applies: higher = longer survival. In short, it runs like this:
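Each value reflects a quotient of treated over vehicle control outcomes in mice with a transplanted tumor.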

Where [1] appears, read: endpoint: mean survival time, dose: 100.0 mg/kg/injection, schedule: Q04DX003 (ip), vehicle: Klucel (hydroxypropylcellulose) (HPC).
Where [2] appears, read: endpoint: mean survival time, dose: 200.0 mg/kg/injection, schedule: Q04DX003 (ip), vehicle: Klucel (hydroxypropylcellulose) (HPC).
The mark [3] stands for this setting: endpoint: mean survival time, dose: 400.0 mg/kg/injection, schedule: Q04DX003 (ip), vehicle: Klucel (hydroxypropylcellulose) (HPC).
Setting [4] is: endpoint: mean survival time, dose: 75.0 mg/kg/injection, schedule: Q01DX001 (ip), vehicle: saline.
The mark [5] stands for this setting: endpoint: mean survival time, dose: 150.0 mg/kg/injection, schedule: Q01DX001 (ip), vehicle: saline.
[6] abbreviates: endpoint: mean survival time, dose: 300.0 mg/kg/injection, schedule: Q01DX001 (ip), vehicle: saline.
Setting [7] is: endpoint: mean survival time, dose: 100.0 mg/kg/injection, schedule: Q04DX003 (ip), vehicle: saline with Tween-80.
[8] abbreviates: endpoint: mean survival time, dose: 200.0 mg/kg/injection, schedule: Q04DX003 (ip), vehicle: saline with Tween-80.
Where [9] appears, read: endpoint: mean survival time, dose: 400.0 mg/kg/injection, schedule: Q04DX003 (ip), vehicle: saline with Tween-80.
[10] abbreviates: endpoint: mean survival time, dose: 100.0 mg/kg/injection, schedule: Q01DX009 (ip), vehicle: saline with Tween-80.
Where [11] appears, read: endpoint: mean survival time, dose: 200.0 mg/kg/injection, schedule: Q01DX009 (ip), vehicle: saline with Tween-80.
Setting [12] is: endpoint: mean survival time, dose: 400.0 mg/kg/injection, schedule: Q01DX009 (ip), vehicle: saline with Tween-80.
[13] abbreviates: endpoint: mean survival time, dose: 50.0 mg/kg/injection, schedule: Q01DX009 (ip), vehicle: saline with Tween-80.

SMILES strings stand for the structures. Several values for one entry are separate records, joined by “and”; a condition that tells them apart may be missing. Equal entries are not always repeated. Toxic doses and inconclusive results are not listed.

This is an account of results in PubChem BioAssay AID256 (DTP/NCI, 2004).

`CC(CCC(=O)c1ccccc1)c1ccc2ccccc2c1` (centres undefined): the T/C by setting is: (endpoint: mean survival time, dose: 100.0 mg/kg/injection, schedule: Q01DX009 (ip), vehicle: Klucel (hydroxypropylcellulose) (HPC)) 92 % of control; under setting [1], 106 % of control; (endpoint: mean survival time, dose: 200.0 mg/kg/injection, schedule: Q01DX009 (ip), vehicle: Klucel (hydroxypropylcellulose) (HPC)) 100 % of control; under setting [2], 104 % of control; (endpoint: mean survival time, dose: 400.0 mg/kg/injection, schedule: Q01DX009 (ip), vehicle: Klucel (hydroxypropylcellulose) (HPC)) 96 % of control; under setting [3], 97 % of control.

With `Oc1ccc(CCNCc2cc3c(cc2Br)OCO3)cc1`, the T/C runs as follows: (endpoint: mean survival time, dose: 100.0 mg/kg/injection, schedule: Q01DX001 (ip), vehicle: saline with Tween-80) 104 % of control; (endpoint: mean survival time, dose: 200.0 mg/kg/injection, schedule: Q01DX001 (ip), vehicle: saline with Tween-80) 96 % of control; (endpoint: mean survival time, dose: 400.0 mg/kg/injection, schedule: Q01DX001 (ip), vehicle: saline with Tween-80) 104 % of control.

`CC(=O)NC1=C(Sc2ccc(C)cc2)C(=O)c2ccccc2C1=O`: the T/C under setting [4] was 96 % of control, the T/C under setting [5] is 98 % of control and the T/C under setting [6] was 108 % of control.

As to `ClSc1c(Cl)c(Cl)c(Cl)c(Cl)c1Cl`, the T/C by setting is: under setting [7], 95 % of control; under setting [8], 101 % of control; under setting [9], 95 % of control.

Take `Cc1ncc([N+](=O)[O-])cc1C(=O)O`: the T/C under setting [7] is 94 % of control, the T/C under setting [8] was 96 % of control and the T/C under setting [9] is 93 % of control.

Take `CCCCNC(=O)C1CC2c3c(Br)ccc4c3C(CC2N(C)C1)CN4C(C)=O` (centres undefined): the T/C is, setting by setting: (endpoint: mean survival time, dose: 50.0 mg/kg/injection, schedule: Q04DX003 (ip), vehicle: saline with Tween-80) 86 % of control; under setting [8], 91 % of control.

Take `CN1CCC(CNC(=O)CCCCCCCCC(=O)NCC2(c3ccccc3)CCN(C)CC2)(c2ccccc2)CC1`: the T/C is, setting by setting: (endpoint: mean survival time, dose: 1.25 mg/kg/injection, schedule: Q04DX003 (ip), vehicle: saline with Tween-80) 95 % of control; (endpoint: mean survival time, dose: 2.5 mg/kg/injection, schedule: Q04DX003 (ip), vehicle: saline with Tween-80) 94 % of control.

As to `Nc1n[nH]c2ccccc12`, the T/C (endpoint: median survival time, dose: 25.0 mg/kg/injection, schedule: Q01DX009 (ip), vehicle: acid diluted with saline) is 101 % of control and 103 % of control and 105 % of control; the T/C (endpoint: median survival time, dose: 50.0 mg/kg/injection, schedule: Q01DX009 (ip), vehicle: acid diluted with saline) was 101 % of control and 108 % of control and 111 % of control; the T/C (endpoint: median survival time, dose: 100.0 mg/kg/injection, schedule: Q01DX009 (ip), vehicle: acid diluted with saline) was 107 % of control; the T/C (endpoint: median survival time, dose: 200.0 mg/kg/injection, schedule: Q01DX009 (ip), vehicle: acid diluted with saline) was 154 % of control and 158 % of control; the T/C (endpoint: median survival time, dose: 400.0 mg/kg/injection, schedule: Q01DX009 (ip), vehicle: acid diluted with saline) is 158 % of control.

For the compound `CCCCCCCCCCCCCC[n+]1ccc(C(N)=O)cc1`, the T/C is 107 % of control (endpoint: mean survival time, dose: 12.5 mg/kg/injection, schedule: Q04DX003 (ip), vehicle: saline with Tween-80) and 107 % of control (endpoint: mean survival time, dose: 25.0 mg/kg/injection, schedule: Q04DX003 (ip), vehicle: saline with Tween-80).

As for `CC(=O)c1ccc(-c2ccccc2)cc1`, the T/C under setting [1] is 102 % of control, the T/C under setting [2] was 103 % of control and the T/C under setting [3] was 102 % of control.

Consider `FC(F)(F)/C([S-])=C(/[S-])C(F)(F)F.FC(F)(F)/C([S-])=C(/[S-])C(F)(F)F.FC(F)(F)/C([S-])=C(/[S-])C(F)(F)F.FC(F)(F)/C([S-])=C(/[S-])C(F)(F)F.[Co+3].[Co+3]`, for which the T/C reads like this: (endpoint: mean survival time, dose: 12.5 mg/kg/injection, schedule: Q04DX003 (ip), vehicle: other) 95 % of control; (endpoint: mean survival time, dose: 25.0 mg/kg/injection, schedule: Q04DX003 (ip), vehicle: other) 95 % of control; (endpoint: mean survival time, dose: 50.0 mg/kg/injection, schedule: Q04DX003 (ip), vehicle: other) 98 % of control.

On to `CNS(=O)(=O)c1ccc2c(c1)[nH]c(=S)n2C`, for which the T/C is 97 % of control under setting [10]; 96 % of control under setting [7]; 93 % of control under setting [11]; 92 % of control under setting [8]; 93 % of control under setting [12]; 90 % of control under setting [9].

`COc1cc2ccc(/C=N/NC(N)=S)cc2cc1OC`: the T/C is 94 % of control (endpoint: mean survival time, dose: 25.0 mg/kg/injection, schedule: Q01DX009 (ip), vehicle: water); 98 % of control (endpoint: mean survival time, dose: 50.0 mg/kg/injection, schedule: Q01DX009 (ip), vehicle: water); 102 % of control (endpoint: mean survival time, dose: 100.0 mg/kg/injection, schedule: Q01DX009 (ip), vehicle: water); 93 % of control (endpoint: mean survival time, dose: 200.0 mg/kg/injection, schedule: Q01DX009 (ip), vehicle: water).

For `S=C1NCCO1`, the T/C is, setting by setting: under setting [10], 100 % of control and 95 % of control; under setting [7], 95 % of control; under setting [11], 91 % of control and 97 % of control; under setting [8], 93 % of control; under setting [12], 112 % of control; under setting [9], 104 % of control.

With `CCCCCCCCCCCCCCCCCC(=O)N1CC[N+](C)(C)CC1`, the T/C by setting is: under setting [4], 101 % of control; under setting [5], 100 % of control; under setting [6], 107 % of control.

As for `C/C=C/CC1CCCCC1C` (centres undefined), the T/C by setting is: under setting [13], 96 % of control; under setting [10], 96 % of control; under setting [11], 108 % of control.

For `Cc1nccc2cc3c(cc12)Cc1ccccc1-3`, the T/C is, setting by setting: (endpoint: mean survival time, dose: 100.0 mg/kg/injection, schedule: Q04DX002 (ip), vehicle: saline with Tween-80) 88 % of control; (endpoint: mean survival time, dose: 200.0 mg/kg/injection, schedule: Q04DX002 (ip), vehicle: saline with Tween-80) 92 % of control; (endpoint: mean survival time, dose: 400.0 mg/kg/injection, schedule: Q04DX002 (ip), vehicle: saline with Tween-80) 88 % of control.

Consider `Brc1ccc(-c2csc3cccc[n+]23)cc1`, for which the T/C is 93 % of control (endpoint: mean survival time, dose: 5.0 mg/kg/injection, schedule: Q04DX003 (ip), vehicle: saline with Tween-80); 104 % of control (endpoint: mean survival time, dose: 10.0 mg/kg/injection, schedule: Q04DX003 (ip), vehicle: saline with Tween-80); 93 % of control (endpoint: mean survival time, dose: 20.0 mg/kg/injection, schedule: Q04DX003 (ip), vehicle: saline with Tween-80).

Consider `O=C(OCC1OC(n2nc(N3CCOCC3)c(=O)[nH]c2=O)C(OC(=O)c2ccccc2)C1OC(=O)c1ccccc1)c1ccccc1` (centres undefined), for which the T/C reads like this: (endpoint: mean survival time, dose: 12.5 mg/kg/injection, schedule: Q01DX005 (ip), vehicle: distilled water + Tween-80) 98 % of control; (endpoint: mean survival time, dose: 25.0 mg/kg/injection, schedule: Q01DX005 (ip), vehicle: distilled water + Tween-80) 103 % of control; (endpoint: mean survival time, dose: 50.0 mg/kg/injection, schedule: Q01DX005 (ip), vehicle: distilled water + Tween-80) 92 % of control.

Turning to `CC[N+](C)(CC)CCCOC(=O)c1ccccc1Oc1ccc(C)cc1`, the T/C (endpoint: mean survival time, dose: 50.0 mg/kg/injection, schedule: Q01DX009 (ip), vehicle: saline) is 102 % of control.

Take `CCCCCCCC(O)CCCCCCC`: the T/C reads like this: (endpoint: mean survival time, dose: 100.0 mg/kg/injection, schedule: Q01DX009 (ip), vehicle: other) 101 % of control; (endpoint: mean survival time, dose: 100.0 mg/kg/injection, schedule: Q04DX003 (ip), vehicle: other) 95 % of control; (endpoint: mean survival time, dose: 200.0 mg/kg/injection, schedule: Q01DX009 (ip), vehicle: other) 98 % of control; (endpoint: mean survival time, dose: 200.0 mg/kg/injection, schedule: Q04DX003 (ip), vehicle: other) 97 % of control; (endpoint: mean survival time, dose: 400.0 mg/kg/injection, schedule: Q01DX009 (ip), vehicle: other) 95 % of control; (endpoint: mean survival time, dose: 400.0 mg/kg/injection, schedule: Q04DX003 (ip), vehicle: other) 100 % of control.

With `C(CCSC1=NCCN1)CSC1=NCCN1`, the T/C (endpoint: mean survival time, dose: 25.0 mg/kg/injection, schedule: Q04DX002 (ip), vehicle: saline) is 96 % of control; the T/C (endpoint: mean survival time, dose: 50.0 mg/kg/injection, schedule: Q04DX002 (ip), vehicle: saline) was 107 % of control; the T/C (endpoint: mean survival time, dose: 100.0 mg/kg/injection, schedule: Q04DX002 (ip), vehicle: saline) was 90 % of control.

`O=C(NNc1ccccc1)C(F)(F)F`: the T/C is, setting by setting: (endpoint: mean survival time, dose: 25.0 mg/kg/injection, schedule: Q01DX009 (ip), vehicle: saline with Tween-80) 107 % of control; under setting [13], 101 % of control; (endpoint: mean survival time, dose: 100.0 mg/kg/injection, schedule: Q04DX003 (ip), vehicle: acetone) 93 % of control.
